In patent US20250346569A1, “NEW DERIVATIVES FOR TREATING TRPM3 MEDIATED DISORDERS” (Katholieke Universiteit Leuven, priority 2022, published 2025) one finds IC50 data, which are given here for 31 molecules.

For this test, the target named is T1, mouse TRPM3α2 (mTRPM3) ion channel (Mus musculus, UniProt J9SQF3).
T1 construct: expressed in transfected cells; host or cells: flip-in HEK293
T1 sequence (J9SQF3 1-1709 isoform J9SQF3-12): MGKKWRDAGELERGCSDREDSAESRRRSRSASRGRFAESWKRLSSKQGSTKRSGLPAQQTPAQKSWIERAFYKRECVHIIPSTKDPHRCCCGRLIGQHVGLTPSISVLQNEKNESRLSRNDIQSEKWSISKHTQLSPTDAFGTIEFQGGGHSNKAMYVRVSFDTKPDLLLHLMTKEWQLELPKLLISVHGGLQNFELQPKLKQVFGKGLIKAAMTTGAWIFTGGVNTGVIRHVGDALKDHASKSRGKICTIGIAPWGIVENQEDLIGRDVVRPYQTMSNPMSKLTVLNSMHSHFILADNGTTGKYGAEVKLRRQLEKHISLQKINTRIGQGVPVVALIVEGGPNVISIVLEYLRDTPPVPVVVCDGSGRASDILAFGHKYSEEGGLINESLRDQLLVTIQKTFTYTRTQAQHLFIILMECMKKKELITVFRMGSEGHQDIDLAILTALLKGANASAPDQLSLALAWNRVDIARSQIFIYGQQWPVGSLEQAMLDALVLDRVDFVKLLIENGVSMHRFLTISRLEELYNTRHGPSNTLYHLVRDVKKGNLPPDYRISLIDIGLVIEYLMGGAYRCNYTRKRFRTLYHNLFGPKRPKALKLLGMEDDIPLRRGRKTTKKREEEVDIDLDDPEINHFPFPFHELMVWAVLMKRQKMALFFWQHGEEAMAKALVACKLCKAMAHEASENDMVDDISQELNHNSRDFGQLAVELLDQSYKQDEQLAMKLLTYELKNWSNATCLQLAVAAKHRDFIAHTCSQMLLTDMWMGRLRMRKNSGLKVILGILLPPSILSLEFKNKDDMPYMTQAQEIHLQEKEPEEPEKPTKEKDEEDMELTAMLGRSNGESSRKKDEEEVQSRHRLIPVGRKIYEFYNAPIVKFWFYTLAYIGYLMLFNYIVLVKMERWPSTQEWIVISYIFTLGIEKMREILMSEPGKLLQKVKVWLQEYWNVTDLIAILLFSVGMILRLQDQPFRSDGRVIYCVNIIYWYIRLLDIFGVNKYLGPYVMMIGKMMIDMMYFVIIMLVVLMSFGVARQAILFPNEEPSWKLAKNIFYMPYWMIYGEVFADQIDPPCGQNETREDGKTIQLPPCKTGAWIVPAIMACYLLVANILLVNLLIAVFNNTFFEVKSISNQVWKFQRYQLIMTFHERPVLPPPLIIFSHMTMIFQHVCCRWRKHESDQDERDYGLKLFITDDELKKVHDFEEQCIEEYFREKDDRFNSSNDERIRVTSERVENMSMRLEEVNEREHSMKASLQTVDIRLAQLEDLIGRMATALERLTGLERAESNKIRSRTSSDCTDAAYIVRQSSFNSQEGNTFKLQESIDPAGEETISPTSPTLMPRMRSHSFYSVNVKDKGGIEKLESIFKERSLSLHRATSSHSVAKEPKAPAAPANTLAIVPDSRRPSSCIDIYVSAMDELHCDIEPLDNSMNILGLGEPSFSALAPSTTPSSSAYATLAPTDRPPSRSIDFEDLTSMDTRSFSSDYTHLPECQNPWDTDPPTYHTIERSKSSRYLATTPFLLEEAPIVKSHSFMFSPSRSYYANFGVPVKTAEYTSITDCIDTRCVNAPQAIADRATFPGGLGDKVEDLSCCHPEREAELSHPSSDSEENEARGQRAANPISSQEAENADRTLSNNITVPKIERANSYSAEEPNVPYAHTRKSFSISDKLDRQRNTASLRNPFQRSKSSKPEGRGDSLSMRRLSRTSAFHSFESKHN
Kind of test: Monitoring the TRPM3 ion channel driven Ca2+ uptake (Fluo-4 AM assay). The format is cell-based. The note with it: TRPM3 overexpressing flip-in HEK293 cells, channel stimulated with Pregnenolone sulfate (PS) 50 μM. How it is done:
Monitoring the TRPM3 ion channel driven Ca^2+ uptake.
In order to monitor the inhibition of the mouse TRPM3α2 (mTRPM3) ion channel by the compounds of the invention, a cellular system making use of an mTRPM3alpha2 or hTRPM3 overexpressing cell line (flip-in HEK293) was used. The TRPM3 channel was stimulated/opened with Pregnenolone sulfate (PS) (50 μM) which results in Ca^2+ influx.
For mTRPM3, the intracellular Ca^2+ was measured with a Calcium responsive dye, Fluor-4 AM ester (Invitrogen). Cells were cultured until a confluence of 80-90%, washed with Versene (Invitrogen) and detached from the surface by a short incubation with 0.05% Trypsin (Invitrogen). The trypsination process was stopped by the addition of complete cell culture medium (DMEM, glutamax,10% FCS,NEAA,Pen-Strep). Cells were collected and resuspended in Krebs buffer without Calcium at RT.
Prior the cell seeding (±2000 cells/well into a black, 384 well plate (Greiner)) the diluted compound was added in the assay plate, together with the PS dissolved in Krebs buffer containing Calcium. […] Directly after cell addition the plates were read on an Envision fluorescence reader (Perkin Elmer) by an Excitation of 485 nm and emission at 535 nm.
Channel inhibition was calculated compared to a non-PS stimulated control versus a condition stimulated with PS (50 μM) with vehicle. The ability of the compounds of the invention to inhibit this activity was determined as: Percentage inhibition=[1−((RFU determined for sample with test compound present−RFU determined for sample with positive control inhibitor) divided by (RFU determined in the presence of vehicle−RFU determined for sample with positive control inhibitor))]*100.
The activities of the Example compounds tested are depicted in the table below. The activity ranges A, B and C refer to IC50 values in the Fluo-4 AM assay as follows: “A”: IC50<1 μM; “B”: 1 μM≤IC50≤20 μM and “C”: IC50>20 μM
Regarding `Cc1ncsc1COc1ccc2sc(C)c(C(=O)NC3(CO)CCC3)c2c1` [Cpd 035, N-[1-(hydroxymethyl)cyclobutyl]-2-methyl-5-[(4-methyl-1,3-thiazol-5-yl)methoxy]-1-benzothiophene-3-carboxamide], the IC50 was < 1000 nM.

For the molecule `Cc1sc2ccc(OCc3ccccn3)cc2c1C(=O)N[C@H](CO)C(N)=O` [Cpd 057, (2R)-3-hydroxy-2-({2-methyl-5-[(pyridin-2-yl)methoxy]-1-benzothiophen-3-yl}formamido)propanamide], the half-maximal inhibitory concentration (IC50) is < 1000 nM.

Take `Cc1sc2ccc(OCC3CC3)cc2c1C(=O)NC(C)(C)C(N)=O` [Cpd 061, 2-{[5-(cyclopropylmethoxy)-2-methyl-1-benzothiophen-3-yl]formamido}-2-methylpropanamide]: the IC50 was < 1000 nM.

As for `Cc1sc2ccc(OCc3ccccc3F)cc2c1C(=O)NC1(CO)COC1` [Cpd 085, 5-[(2-fluorophenyl)methoxy]-N-[3-(hydroxymethyl)oxetan-3-yl]-2-methyl-1-benzothiophene-3-carboxamide], the IC50 was < 1000 nM.

With `CNC(=O)C(C)(CO)NC(=O)c1c(C)sc2ccc(OCc3cnc(C)s3)cc12` (single isomer, unassigned) [Cpd 132 - En1, 3-hydroxy-N,2-dimethyl-2-({2-methyl-5-[(2-methyl-1,3-thiazol-5-yl)methoxy]-1-benzothiophen-3-yl}formamido)propanamide], the IC50 is < 1000 nM.

For `COc1ncccc1COc1ccc2sc(C)c(C(=O)NC(C)(C)C(N)=O)c2c1` [Cpd 141, 2-({5-[(2-methoxypyridin-3-yl)methoxy]-2-methyl-1-benzothiophen-3-yl}formamido)-2-methylpropanamide], the IC50 is < 1000 nM.

`Cc1sc2ccc(OCc3ccccc3F)cc2c1C(=O)N[C@@H]1CCN(CCO)C1=O` [Cpd 055, 5-[(2-fluorophenyl)methoxy]-N-[(3R)-1-(2-hydroxyethyl)-2-oxopyrrolidin-3-yl]-2-methyl-1-benzothiophene-3-carboxamide]: the 50% inhibitory concentration (IC50) lay within 1000 to 20000 nM.

Turning to `O=C(NCCN1CCOC1=O)c1c(C(F)F)sc2ccc(OCc3ccccc3)cc12` [Cpd 149, 5-(benzyloxy)-2-(difluoromethyl)-N-[2-(2-oxo-1,3-oxazolidin-3-yl)ethyl]-1-benzothiophene-3-carboxamide], the IC50 was > 20000 nM.

Regarding `Cc1ncsc1COc1ccc2sc(C)c(C(=O)NCc3cccc(O)n3)c2c1` [Cpd 047, N-[(6-hydroxypyridin-2-yl)methyl]-2-methyl-5-[(4-methyl-1,3-thiazol-5-yl)methoxy]-1-benzothiophene-3-carboxamide], the IC50 was < 1000 nM.

Take `Cc1ncsc1COc1ccc2sc(C)c(C(=O)NC3CCN(C)C3)c2c1` (stereo not shown) [Cpd 126, 2-methyl-5-[(4-methyl-1,3-thiazol-5-yl)methoxy]-N-(1-methylpyrrolidin-3-yl)-1-benzothiophene-3-carboxamide]: the IC50 was < 1000 nM.

`Cc1sc2ccc(OCc3cccnc3O)cc2c1C(=O)NC(C)(C)C(N)=O` [Cpd 066, 2-({5-[(2-hydroxypyridin-3-yl)methoxy]-2-methyl-1-benzothiophen-3-yl}formamido)-2-methylpropanamide]: the IC50 was < 1000 nM.

For the molecule `Cc1sc2ccc(OCc3ccccn3)cc2c1C(=O)NC(C)(C)C(N)=O` [Cpd 064, 2-methyl-2-({2-methyl-5-[(pyridin-2-yl)methoxy]-1-benzothiophen-3-yl}formamido)propanamide], the IC50 was < 1000 nM.

For `Cc1sc2ccc(OCc3ccccc3)cc2c1C(=O)NC1CN(C)CC1(F)F` (stereo not shown) [Cpd 120, 5-(benzyloxy)-N-(4,4-difluoro-1-methylpyrrolidin-3-yl)-2-methyl-1-benzothiophene-3-carboxamide], the IC50 is < 1000 nM.

For `Cc1sc2ccc(OCC3CCOCC3)cc2c1C(=O)NC(C)(CO)C(N)=O` (single isomer, unassigned) [Cpd 067 - En1, 3-hydroxy-2-methyl-2-({2-methyl-5-[(oxan-4-yl)methoxy]-1-benzothiophen-3-yl}formamido)propanamide], the IC50 is > 20000 nM.

As to `Cc1sc2ccc(OCc3cccnc3O)cc2c1C(=O)N[C@@H](C)C(N)=O` [Cpd 010, (2S)-2-({5-[(2-hydroxypyridin-3-yl)methoxy]-2-methyl-1-benzothiophen-3-yl}formamido)propanamide], the IC50 was < 1000 nM.

Regarding `Cc1ncsc1COc1ccc2sc(C)c(C(=O)NCCN(C)C)c2c1` [Cpd 118, N-[2-(dimethylamino)ethyl]-2-methyl-5-[(4-methyl-1,3-thiazol-5-yl)methoxy]-1-benzothiophene-3-carboxamide], the IC50 was < 1000 nM.

Take `Cc1ncc(COc2ccc3sc(C)c(C(=O)NC4(C(N)=O)COC4)c3c2)s1` [Cpd 026, 3-{2-methyl-5-[(2-methyl-1,3-thiazol-5-yl)methoxy]-1-benzothiophene-3-amido}oxetane-3-carboxamide]: the IC50 is < 1000 nM.

For `Cc1sc2ccc(OCc3cccnc3C(F)(F)F)cc2c1C(=O)NCC1(N(C)C)CCCC1` [Cpd 113, N-{[1-(dimethylamino)cyclopentyl]methyl}-2-methyl-5-{[2-(trifluoromethyl)pyridin-3-yl]methoxy}-1-benzothiophene-3-carboxamide], the IC50 is < 1000 nM.

Regarding `Cc1sc2ccc(OCc3cccnc3C(F)(F)F)cc2c1C(=O)NC1CN(C)CC1(F)F` (stereo not shown) [Cpd 121, N-(4,4-difluoro-1-methylpyrrolidin-3-yl)-2-methyl-5-{[2-(trifluoromethyl)pyridin-3-yl]methoxy}-1-benzothiophene-3-carboxamide], the IC50 was < 1000 nM.

Consider `Cc1sc2ccc(OCc3ccccc3)cc2c1C(=O)NC1CCN(C)C1` (stereo not shown) [Cpd 123, 5-(benzyloxy)-2-methyl-N-(1-methylpyrrolidin-3-yl)-1-benzothiophene-3-carboxamide], for which the IC50 was < 1000 nM.

As for `Cc1sc2ccc(OCc3ccccn3)cc2c1C(=O)NC1(CO)COC1` [Cpd 086, N-[3-(hydroxymethyl)oxetan-3-yl]-2-methyl-5-[(pyridin-2-yl)methoxy]-1-benzothiophene-3-carboxamide], the 50% inhibitory concentration (IC50) was < 1000 nM.

Take `Cc1sc2ccc(OCc3ccccc3F)cc2c1C(=O)N[C@H]1CCN(CCO)C1=O` [Cpd 059, 5-[(2-fluorophenyl)methoxy]-N-[(3S)-1-(2-hydroxyethyl)-2-oxopyrrolidin-3-yl]-2-methyl-1-benzothiophene-3-carboxamide]: the IC50 was < 1000 nM.

With `CN(C)C1(CNC(=O)c2c(C(F)F)sc3ccc(OCc4ccccc4)cc23)CCCC1` [Cpd 112, 5-(benzyloxy)-2-(difluoromethyl)-N-{[1-(dimethylamino)cyclopentyl]methyl}-1-benzothiophene-3-carboxamide], the IC50 is 1000 to 20000 nM.

As for `Cc1sc2ccc(OCc3ccccc3F)cc2c1C(=O)N[C@@H](CO)C(N)=O` [Cpd 051, (2S)-2-({5-[(2-fluorophenyl)methoxy]-2-methyl-1-benzothiophen-3-yl}formamido)-3-hydroxypropanamide], the IC50 is < 1000 nM.

In the case of `Cc1sc2ccc(OCc3ccccn3)cc2c1C(=O)N[C@@H](CO)C(N)=O` [Cpd 052, (2S)-3-hydroxy-2-({2-methyl-5-[(pyridin-2-yl)methoxy]-1-benzothiophen-3-yl}formamido)propanamide], the half-inhibitory concentration (IC50) is < 1000 nM.

In the case of `Cc1sc2ccc(OCc3cccnc3C(F)(F)F)cc2c1C(=O)N[C@H](C)C(N)=O` [Cpd 004, (2R)-2-[(2-methyl-5-{[2-(trifluoromethyl)pyridin-3-yl]methoxy}-1-benzothiophen-3-yl)formamido]propanamide], the IC50 was < 1000 nM.

Take `Cc1sc2ccc(OCc3cccnc3O)cc2c1C(=O)N[C@@H](CO)C(N)=O` [Cpd 054, (2S)-3-hydroxy-2-({5-[(2-hydroxypyridin-3-yl)methoxy]-2-methyl-1-benzothiophen-3-yl}formamido)propanamide]: the IC50 was 1000 to 20000 nM.

For the molecule `Cc1sc2ccc(OCc3ccccc3F)cc2c1C(=O)NC(C)(C)C(N)=O` [Cpd 063, 2-({5-[(2-fluorophenyl)methoxy]-2-methyl-1-benzothiophen-3-yl}formamido)-2-methylpropanamide], the IC50 is < 1000 nM.

For `Cc1sc2ccc(OCc3ccccc3F)cc2c1C(=O)N[C@H](CO)C(N)=O` [Cpd 056, (2R)-2-({5-[(2-fluorophenyl)methoxy]-2-methyl-1-benzothiophen-3-yl}formamido)-3-hydroxypropanamide], the IC50 is < 1000 nM.

`COc1ncccc1COc1ccc2sc(C)c(C(=O)N[C@H](C)C(N)=O)c2c1` [Cpd 140, (2R)-2-({5-[(2-methoxypyridin-3-yl)methoxy]-2-methyl-1-benzothiophen-3-yl}formamido)propanamide]: the IC50 is < 1000 nM.

For the molecule `CNC(=O)c1c(C)sc2ccc(OCc3cccnc3C(F)(F)F)cc12` [Cpd 136, N,2-dimethyl-5-{[2-(trifluoromethyl)pyridin-3-yl]methoxy}-1-benzothiophene-3-carboxamide], the IC50 was < 1000 nM.

A word on the IC50: it is the concentration that gives 50% inhibition. A high value points to lower potency.
